Test results taken from patent US20250154597A1, “TRANSCRIPTIONAL REPROGRAMMING DIFFERENTIATES ACTIVE FROM INACTIVE ESR1 FUSIONS IN ENDOCRINE THERAPY-REFRACTORY METASTATIC BREAST CANCER” (Baylor College of Medicine, priority 2021, published 2025).
Blank lines part the entries; values can stand above or below the molecule they belong to.

Experiments:
WT ERα protein = biological target: T1, WT ERα protein (Homo sapiens, UniProt P03372); assay: Immunoblotting of endogenous WT ERα after fulvestrant treatment; assay type: cell-based; conditions: 100 nM fulvestrant; hormone-deprived stable T47D and MCF7 cells
T1 sequence (P03372 1-595): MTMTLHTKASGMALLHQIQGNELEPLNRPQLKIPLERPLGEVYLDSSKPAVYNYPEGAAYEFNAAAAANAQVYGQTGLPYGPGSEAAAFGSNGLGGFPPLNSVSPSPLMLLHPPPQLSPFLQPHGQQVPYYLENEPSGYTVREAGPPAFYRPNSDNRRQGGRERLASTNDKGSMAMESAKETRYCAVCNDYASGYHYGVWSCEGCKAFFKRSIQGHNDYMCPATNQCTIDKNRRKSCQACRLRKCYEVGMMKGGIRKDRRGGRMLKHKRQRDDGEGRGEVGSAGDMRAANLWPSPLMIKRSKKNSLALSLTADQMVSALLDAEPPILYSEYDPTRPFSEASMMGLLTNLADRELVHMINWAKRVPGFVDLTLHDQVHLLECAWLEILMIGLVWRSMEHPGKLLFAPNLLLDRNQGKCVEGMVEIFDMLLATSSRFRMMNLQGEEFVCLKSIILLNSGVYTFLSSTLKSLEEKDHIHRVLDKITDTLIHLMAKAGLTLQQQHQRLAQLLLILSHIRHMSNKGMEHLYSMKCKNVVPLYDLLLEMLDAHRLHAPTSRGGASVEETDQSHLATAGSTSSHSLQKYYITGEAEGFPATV
Experimental: Immunoblotting and immunoprecipitation—Cells were harvested and whole cell lysates were prepared in RIPA lysis buffer as described (7) or in MIB lysis buffer (10) supplemented with 1× protease inhibitors and 1× phosphatase inhibitors (Roche) by sonication for 2 minutes. […] Protein concentration determination and SDS-PAGE (20 g protein per lane) were performed as described (7). Immunoblotting of nitrocellulose membranes was performed as described (7). Primary and HRP-conjugated secondary antibodies employed are listed in the Supplementary information.

ESR1 fusion protein = assay: Immunoblotting of ESR1 fusion proteins after fulvestrant treatment; assay type: cell-based; conditions: 100 nM fulvestrant; hormone-deprived stable T47D and MCF7 cells
Experimental: (§1) Immunoblotting and immunoprecipitation—Cells were harvested and whole cell lysates were prepared in RIPA lysis buffer as described (7) or in MIB lysis buffer (10) supplemented with 1× protease inhibitors and 1× phosphatase inhibitors (Roche) by sonication for 2 minutes. To make ER+ PDX tumor lysates, frozen PDX tumors were cryopulverized with a Covaris CP02 Pulverizer and then protein was extracted in MIB lysis buffer with sonication. Protein concentration determination and SDS-PAGE ([…] protein per lane) were performed as described (7). Immunoblotting of nitrocellulose membranes was performed as described (7). Primary and HRP-conjugated secondary antibodies employed are listed in the Supplementary information.
(§2) To characterize each chimeric ESR1 fusion protein, HA-tagged cDNA constructs were expressed in two ER+ breast cancer cell lines (T47D and MCF7) by lentiviral transduction. Stable cell lines expressing yellow fluorescent protein (YFP) were generated as negative controls. Truncated ESR1 (ESR1-e6 protein) and wild-type ESR1 (ESR1-WT protein) were also stably expressed to provide over-expression controls (FIGS. 2A and 2D). When cells were treated with 100 nM fulvestrant, a selective ERα degrader that inhibits endogenous ERα (21), the level of ESR1 fusion protein was predictably unaffected. […] Cell growth was measured using an alamarBlue assay. […]

T47D cells = assay: Cell growth, alamarBlue assay; assay type: cell-based; conditions: 100 nM fulvestrant, 7-10 days
Experimental: Cell growth, motility and invasion assays—Cell growth assays of different ESR1 fusion protein expressing breast cancer cells that were first hormone-deprived and then subsequently treated either with 100 nM fulvestrant in the presence or absence of 10 nM E2 for 7-10 days were performed in 96-well plates using an alamarBlue™ assay as described (7). Cell growth reading values were normalized to that of control YFP cells, −E2.
as §2, with “unaffected. In comparison, the WT ERα protein was reliably degraded, providing an endogenous control for fulvestrant activity (FIGS. 2A and 2D).” for “unaffected.”

[1] = test system: T47D cells expressing active ESR1 fusion proteins; assay: Expression of estrogen response and EMT-related genes (RT-qPCR, immunoblotting); assay type: cell-based; conditions: 100 nM fulvestrant; E2-deprived T47D cells
Experimental: as §1
Reverse transcription-quantitative PCR (RT-qPCR)—RNA was isolated from hormone-deprived stable T47D cells as above with concentration determined using a NanoDrop spectrophotometer. […]
To define the transcriptional profile driven by active ESR1 fusion proteins, RNA-Seq was performed on T47D cells expressing these ESR1 fusion cDNAs as well as control (YFP, ESR1-e6, and ESR1-WT) cells in the presence and absence of E2. […] The expression of three canonical estrogen response genes in stably transfected T47D cells were validated using reverse transcription-quantitative PCR (RT-qPCR). […]

[2] = biological target: T2, ESR1-e6>YAP1 fusion protein, C-terminal HA-tagged (UniProt P03372 1-365; P46937 230-504, limits assumed); assay: co-immunoprecipitation: anti-HA IP from hormone-deprived T47D cell lysates with or without 100 nM E2, blot with C-terminal ERα antibody
T2 construct: Stably expressed in T47D cells by lentiviral transduction; also called ESR1-YAP1; not shown: C-terminal HA tag

[3] = biological target: T3, ESR1-e6>PCDH11X fusion protein, C-terminal HA-tagged (UniProt P03372 1-365; Q9BZA7 1013-1347, limits assumed); assay: as above
T3 construct: Stably expressed in T47D cells by lentiviral transduction; not shown: C-terminal HA tag
T3 sequence (looked up): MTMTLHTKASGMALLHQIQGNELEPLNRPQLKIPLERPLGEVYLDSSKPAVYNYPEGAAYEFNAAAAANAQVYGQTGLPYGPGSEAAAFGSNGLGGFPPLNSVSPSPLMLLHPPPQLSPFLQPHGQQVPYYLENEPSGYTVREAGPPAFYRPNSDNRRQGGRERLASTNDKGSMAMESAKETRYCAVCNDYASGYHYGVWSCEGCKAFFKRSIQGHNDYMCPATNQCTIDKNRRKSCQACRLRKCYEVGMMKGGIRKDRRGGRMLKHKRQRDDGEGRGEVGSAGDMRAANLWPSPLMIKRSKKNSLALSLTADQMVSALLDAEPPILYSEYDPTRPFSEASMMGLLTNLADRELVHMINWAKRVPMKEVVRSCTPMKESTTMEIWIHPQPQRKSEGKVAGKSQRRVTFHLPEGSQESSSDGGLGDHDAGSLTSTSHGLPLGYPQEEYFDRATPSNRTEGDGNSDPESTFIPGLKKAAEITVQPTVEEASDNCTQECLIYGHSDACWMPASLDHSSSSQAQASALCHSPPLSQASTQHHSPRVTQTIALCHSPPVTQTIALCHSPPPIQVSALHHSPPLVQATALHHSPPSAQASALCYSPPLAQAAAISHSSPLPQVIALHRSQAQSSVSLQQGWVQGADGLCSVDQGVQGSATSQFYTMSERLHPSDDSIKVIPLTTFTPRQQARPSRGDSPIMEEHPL

[4] = biological target: T4, ESR1-e6>SOX9 fusion protein, HA-tagged (UniProt P03372 1-365; P48436 229-509, limits assumed); assay: as above
T4 construct: Stably expressed in T47D cells by lentiviral transduction; not shown: HA tag (constructed in a similar fashion to the C-terminal HA-tagged constructs)
T4 sequence (looked up): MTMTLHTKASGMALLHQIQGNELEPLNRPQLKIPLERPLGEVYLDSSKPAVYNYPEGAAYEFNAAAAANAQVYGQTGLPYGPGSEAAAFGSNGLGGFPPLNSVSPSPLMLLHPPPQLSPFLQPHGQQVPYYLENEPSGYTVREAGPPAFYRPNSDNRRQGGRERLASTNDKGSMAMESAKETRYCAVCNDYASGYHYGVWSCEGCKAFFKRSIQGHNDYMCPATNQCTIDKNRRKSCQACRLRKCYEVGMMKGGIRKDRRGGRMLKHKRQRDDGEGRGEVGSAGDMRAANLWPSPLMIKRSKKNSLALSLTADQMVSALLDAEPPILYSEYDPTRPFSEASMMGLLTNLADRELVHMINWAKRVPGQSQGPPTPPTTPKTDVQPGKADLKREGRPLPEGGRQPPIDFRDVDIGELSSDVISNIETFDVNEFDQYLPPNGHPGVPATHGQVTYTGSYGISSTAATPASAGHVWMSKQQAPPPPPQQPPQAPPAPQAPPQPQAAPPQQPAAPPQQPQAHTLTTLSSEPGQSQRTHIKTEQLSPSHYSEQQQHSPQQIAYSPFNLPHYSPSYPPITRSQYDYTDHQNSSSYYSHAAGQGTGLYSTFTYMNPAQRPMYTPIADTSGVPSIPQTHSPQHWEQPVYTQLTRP

level of WT ERα protein (WT ERα protein): degraded
Molecule: C[C@]12CC[C@@H]3c4ccc(O)cc4C[C@@H](CCCCCCCCC[S+]([O-])CCCC(F)(F)C(F)(F)F)[C@H]3[C@@H]1CC[C@@H]2O (stereo partly shown) [fulvestrant]
level of ESR1 fusion protein (ESR1 fusion protein): unaffected
E2-independent growth of T47D cells expressing ESR1-e6>YAP1, >PCDH11X, >SOX9, >ARNT2-e18 (T47D cells): uniformly resistant to fulvestrant
expression of estrogen response and EMT-related genes induced by active ESR1 fusion proteins [1]: unaffected

binding result [2]: no binding
binding result [3]: no binding
binding result [4]: no binding
B1: endogenously expressed ERα (wild-type estrogen receptor alpha, encoded by ESR1) (receptor, UniProt P03372 1-595, looked up)
chain: T1 sequence (P03372 1-595)
notes: also called WT ERα; endogenous ERα
